The source of these data is US20250092065A1, “2-(INDAZOL-5-YL)-6-(PIPERIDIN-4-YL)-1,7-NAPHTHYRIDINE DERIVATIVES AND RELATED COMPOUNDS AS MODULATORS FOR SPLICING NUCLEIC ACIDS AND FOR THE TREATMENT OF PROLIFERATIVE DISEASES” (REMIX THERAPEUTICS INC., priority 2022, published 2025).

Each structure is given as a SMILES string. Read-outs that look alike come from different tables or passages of the source.

Common to all, as to format: cell-based, human
One assay concerns MYB mRNA. As to the kind of experiment: RT-qPCR splicing assay, MYB mRNA canonical (CJ) and alternative (AJ) junction. Particulars: Homo sapiens; for AC50: MYB alternative junction mRNA, read-out: MYB AJ (increase in AJ mRNA, AC50). Summed up: (§1)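 A673 or K562 cells treated 24 h at 37 °C with 11-point 3-fold dilutions (top final 10 uM, DMSO ≤0.25%). Lysates analysed by one-step RT-qPCR for canonical (CJ) and alternative-exon (AJ) junctions, normalized to GAPDH, GUSB or PPIA. ΔΔCt vs DMSO, RQ = 2^(−ΔΔCt), expressed as percentage response.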

For another assay, the system named is SMN2 mRNA. The assay is described as follows: RT-qPCR splicing assay, SMN2 mRNA. Particulars: Homo sapiens, canonical junction qPCR panel, Table 4; read-out: SMN2 IC50 (decrease in CJ mRNA levels). Summed up: as §1
A general note: Real-time PCR tracks product formation cycle by cycle.

The test system of another assay is Target C. As to the kind of experiment: HiBiT protein abundance assay, Target C (K562 HiBiT knock-in). Particulars: HiBiT knock-in K562 cells, 24 hours, top dose 10 μM. The method in brief: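 K562 HiBiT knock-in cells (10000/well) were treated 24 h at 37° C with a 10-point 3-fold dilution series (top 10 μM final, ≤0.25% DMSO). HiBiT luminescence was read after lytic LgBiT detection. Percent response used unmodified K562 and DMSO-treated knock-in controls, and IC50 came from a four-parameter fit at 50% of untreated.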
Background: With HiBiT, luminescence reflects the tagged protein that the partner subunit can reach.

The next assay has as its system MYB. As to the kind of experiment: HiBiT protein abundance assay, MYB (K562 HiBiT knock-in). Particulars: HiBiT knock-in K562 cells, 24 hours, top dose 10 μM. The method in brief:
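Tagged-protein levels were measured as HiBiT/LgBiT luminescence in lysed K562 knock-in cells exposed to serially diluted compound (up to 10 μM final) for 24 hours. A four-parameter logistic regression of control-normalized signal yielded the IC50.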

[1] abbreviates: MYB canonical junction mRNA, RT-qPCR, read-out: MYB CJ (decrease in CJ mRNA levels, IC50).
Setting [2] is: canonical junction qPCR panel, Table 4, read-out: MYB IC50 (decrease in CJ mRNA levels).

For `Cc1nc2c(F)c(O)c(-c3ccc4nc(N5CCC(NC(C)C)C5)ccc4n3)cc2o1` (stereo not drawn) [Compound 328, 4-fluoro-6-{6-[3-(isopropylamino)pyrrolidin-1-yl]-1,5-naphthyridin-2-yl}-2-methyl-1,3-benzoxazol-5-ol], in the assay on MYB mRNA (RT-qPCR), the AC50 (as a rule, the midpoint of the concentration-response curve, whichever way the signal moves) is less than 100 nM. Further, the concentration for half-maximal inhibition (IC50) in the assay with MYB mRNA (setting [1]), with MYB mRNA (setting [2]), with SMN2 mRNA, in the assay on Target C and in the assay on MYB was less than 100 nM in each case.

Consider `CN[C@@H]1CCN(c2ccc3nc(-c4cc(F)c5nc(C)cn5c4)ncc3n2)C1` [Compound 331, (3R)-1-(2-{8-fluoro-2-methylimidazo[1,2-a]pyridin-6-yl}pyrido[3,2-d]pyrimidin-6-yl)-N-methylpyrrolidin-3-amine], for which the AC50 in the assay on MYB mRNA (RT-qPCR) was in the range of 100 to 1000 nM. Moreover, the half-maximal inhibitory concentration (IC50) (in general, the concentration that gives 50% inhibition) in the assay with MYB mRNA (setting [1]) is less than 100 nM; in the assay on MYB mRNA (setting [2]), less than 100 nM; with SMN2 mRNA, less than 100 nM; in the assay with Target C, 100 to 1000 nM; in the assay on MYB, 100 to 1000 nM.

For the molecule `CN[C@H]1CCN(c2ccc3nc(-c4cc(F)c5nc(C)cn5c4)ncc3n2)C1` [Compound 332, (S)-1-(2-(8-fluoro-2-methylimidazo[1,2-a]pyridin-6-yl)pyrido[3,2-d]pyrimidin-6-yl)-N-methylpyrrolidin-3-amine], in the assay with MYB mRNA (RT-qPCR), the concentration at half-maximal activity (AC50) was in the range of 100 to 1000 nM. The concentration for half-maximal inhibition (IC50) is 100 to 1000 nM in the assay on MYB mRNA (setting [1]); 100 to 1000 nM with MYB mRNA (setting [2]); less than 100 nM with SMN2 mRNA; 100 to 1000 nM in the assay with Target C; 100 to 1000 nM with MYB.

Take `CC(C)(C)NC1CCN(c2ccc3nc(-c4cc5oc(C6CC6)nc5cc4O)ccc3n2)C1` (stereo not drawn) [Compound 333, 6-{6-[3-(tert-butylamino)pyrrolidin-1-yl]-1,5-naphthyridin-2-yl}-2-cyclopropyl-1,3-benzoxazol-5-ol]: in the assay with MYB mRNA (RT-qPCR), the AC50 is 100 to 1000 nM. In addition, the IC50 with MYB mRNA (setting [1]), in the assay on MYB mRNA (setting [2]), in the assay with SMN2 mRNA, with Target C and in the assay with MYB was 100 to 1000 nM each time.

`COCc1nc2cc(O)c(-c3ccc4nc(N5CCC(NC(C)(C)C)C5)ccc4n3)cc2o1` (stereo not drawn) [Compound 334, 6-{6-[3-(tert-butylamino)pyrrolidin-1-yl]-1,5-naphthyridin-2-yl}-2-(methoxymethyl)-1,3-benzoxazol-5-ol]: the AC50 in the assay on MYB mRNA (RT-qPCR) lay in the range of 100 to 1000 nM. The IC50 in the assay on MYB mRNA (setting [1]), in the assay with MYB mRNA (setting [2]), in the assay on SMN2 mRNA, with Target C and with MYB was 100 to 1000 nM in each case.

Consider `COc1cc2nc(C3COC3)oc2cc1-c1ccc2nc(N3CCC(NC(C)(C)C)C3)ccc2n1` (stereo not drawn) [Compound 335], for which the concentration at half-maximal activity (AC50) in the assay with MYB mRNA (RT-qPCR) lay within 1000 to 10000 nM. The concentration for half-maximal inhibition (IC50) in the assay on MYB mRNA (setting [1]), in the assay on MYB mRNA (setting [2]), in the assay with SMN2 mRNA, in the assay with Target C and in the assay with MYB was 1000 to 10000 nM each time.

Take `CC(C)(C)NC1CCN(c2ccc3nc(-c4cc5oc(CO)nc5cc4O)ccc3n2)C1` (stereo not drawn) [Compound 336, 6-{6-[3-(tert-butylamino)pyrrolidin-1-yl]-1,5-naphthyridin-2-yl}-2-(hydroxymethyl)-1,3-benzoxazol-5-ol]: the AC50 with MYB mRNA (RT-qPCR) lay within 100 to 1000 nM. In addition, the half-maximal inhibitory concentration (IC50) in the assay on MYB mRNA (setting [1]) is 100 to 1000 nM; in the assay on MYB mRNA (setting [2]) it was 100 to 1000 nM; in the assay on SMN2 mRNA, less than 100 nM; in the assay with Target C it was less than 100 nM; in the assay on MYB, less than 100 nM.

Take `CNC1CCN(c2ccc3nc(-c4cc5cn(C)nc5c(C)c4O)ncc3n2)C1` (stereo not drawn) [Compound 337, 2,7-dimethyl-5-{6-[3-(methylamino)pyrrolidin-1-yl]pyrido[3,2-d]pyrimidin-2-yl}indazol-6-ol]: the AC50 with MYB mRNA (RT-qPCR) was less than 100 nM. Further, the half-inhibitory concentration (IC50) with MYB mRNA (setting [1]) was less than 100 nM; with MYB mRNA (setting [2]) it was less than 100 nM; in the assay with SMN2 mRNA, less than 100 nM; in the assay with Target C, 100 to 1000 nM; with MYB it was less than 100 nM.

For `Cc1c(O)c(-c2ncc3nc(N4CCNCC4)ccc3n2)cc2cn(C)nc12` [Compound 338, 2,7-dimethyl-5-[6-(piperazin-1-yl)pyrido[3,2-d]pyrimidin-2-yl]indazol-6-ol], in the assay on MYB mRNA (RT-qPCR), the half-maximal activity concentration (AC50) fell in the range of 100 to 1000 nM. For the same molecule, the IC50 in the assay with MYB mRNA (setting [1]) was less than 100 nM; with MYB mRNA (setting [2]), less than 100 nM; in the assay with SMN2 mRNA it was less than 100 nM; with Target C it was 100 to 1000 nM; in the assay with MYB, less than 100 nM.

On to `Cc1nc2cc(O)c(-c3ccc4nc(N5CCC(NC(C)(C)C)C5)ccc4n3)cc2n1C` (stereo not drawn) [Compound 339, 6-{6-[3-(tert-butylamino)pyrrolidin-1-yl]-1,5-naphthyridin-2-yl}-1,2-dimethyl-1,3-benzodiazol-5-ol], for which the AC50 in the assay with MYB mRNA (RT-qPCR) is 100 to 1000 nM. Besides, the IC50 in the assay on MYB mRNA (setting [1]), with MYB mRNA (setting [2]), in the assay on SMN2 mRNA, in the assay on Target C and in the assay on MYB was 100 to 1000 nM each time.

As to `Cc1nc2cc(-c3ccc4nc(N5CCC(NC(C)(C)C)C5)ccc4n3)c(O)cc2n1C` (stereo not drawn) [Compound 340, 6-{6-[3-(tert-butylamino)pyrrolidin-1-yl]-1,5-naphthyridin-2-yl}-2,3-dimethyl-1,3-benzodiazol-5-ol], the half-maximal activity concentration (AC50) in the assay on MYB mRNA (RT-qPCR) fell in the range of 100 to 1000 nM. Besides, the half-maximal inhibitory concentration (IC50) in the assay on MYB mRNA (setting [1]), with MYB mRNA (setting [2]), with SMN2 mRNA, in the assay on Target C and in the assay with MYB was 100 to 1000 nM in each case.

Regarding `Cn1cc2cc(-c3ccc4nc(N5CCC(NC67CC(O)(C6)C7)C5)ccc4n3)c(O)cc2n1` (stereo not drawn) [Compound 341, 5-{6-[3-({3-hydroxybicyclo[1.1.1]pentan-1-yl}amino)pyrrolidin-1-yl]-1,5-naphthyridin-2-yl}-2-methylindazol-6-ol], the AC50 in the assay with MYB mRNA (RT-qPCR) lay in the range of 100 to 1000 nM. Besides, the 50% inhibitory concentration (IC50) in the assay on MYB mRNA (setting [1]) is 100 to 1000 nM; with MYB mRNA (setting [2]) it was 100 to 1000 nM; with SMN2 mRNA, less than 100 nM; with Target C, less than 100 nM; in the assay on MYB, 100 to 1000 nM.

Regarding `Cc1c(O)c(-c2ncc3nc(N4CCC5(CCN5)C4)ccc3n2)cc2cn(C)nc12` (stereo not drawn) [Compound 342, 5-(6-{1,6-diazaspiro[3.4]octan-6-yl}pyrido[3,2-d]pyrimidin-2-yl)-2,7-dimethylindazol-6-ol], in the assay with MYB mRNA (RT-qPCR), the AC50 lay within 100 to 1000 nM. Moreover, the IC50 is 100 to 1000 nM in the assay on MYB mRNA (setting [1]); 100 to 1000 nM with MYB mRNA (setting [2]); less than 100 nM with SMN2 mRNA; 100 to 1000 nM in the assay with Target C; 100 to 1000 nM with MYB.

For `Cc1cc2nc(-c3ccc4nc(N5CCC(NC(C)(C)C)C5)ccc4n3)cn2c(C)n1` (stereo not drawn) [Compound 344, N-tert-butyl-1-(6-{5,7-dimethylimidazo[1,2-c]pyrimidin-2-yl}-1,5-naphthyridin-2-yl)pyrrolidin-3-amine], in the assay on MYB mRNA (RT-qPCR), the AC50 lay within 1000 to 10000 nM. For the same molecule, the IC50 with MYB mRNA (setting [1]) was 1000 to 10000 nM; in the assay on MYB mRNA (setting [2]), 1000 to 10000 nM; with SMN2 mRNA, less than 100 nM; in the assay on Target C it was 1000 to 10000 nM; with MYB, 1000 to 10000 nM.

In the case of `CCc1nc2cc(O)c(-c3ccc4nc(N5CCC(NC(C)(C)C)C5)ccc4n3)cc2o1` (stereo not drawn) [Compound 346, 6-{6-[3-(tert-butylamino)pyrrolidin-1-yl]-1,5-naphthyridin-2-yl}-2-ethyl-1,3-benzoxazol-5-ol], the half-maximal activity concentration (AC50) in the assay on MYB mRNA (RT-qPCR) lay in the range of 1000 to 10000 nM. The half-maximal inhibitory concentration (IC50) lay within 1000 to 10000 nM with MYB mRNA (setting [1]); 1000 to 10000 nM in the assay with MYB mRNA (setting [2]); 100 to 1000 nM with SMN2 mRNA; 1000 to 10000 nM in the assay on Target C; 1000 to 10000 nM with MYB.

Turning to `Cc1nc2cc(O)c(-c3ccc4nc(N5CC[C@H](N[C@H]6C[C@H](F)C6)C5)ccc4n3)cc2o1` [Compound 350, 2-methyl-6-{6-[(3S)-3-{[(1r,3r)-3-fluorocyclobutyl]amino}pyrrolidin-1-yl]-1,5-naphthyridin-2-yl}-1,3-benzoxazol-5-ol], the AC50 in the assay with MYB mRNA (RT-qPCR) lay within 100 to 1000 nM. For the same molecule, the half-inhibitory concentration (IC50) in the assay on MYB mRNA (setting [1]) was 100 to 1000 nM; in the assay on MYB mRNA (setting [2]) it was 100 to 1000 nM; in the assay with SMN2 mRNA it was less than 100 nM; in the assay on Target C, 100 to 1000 nM; with MYB it was 100 to 1000 nM.
